Reference: the supplement of paper PMC10949913

Assays:
Conditions in all cases: 48 h
CU-ACC1 [1] = experiment: area under concentration-response curve (viability) (AUC (a.u.)); higher = less active
Method in brief: (§1)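 Library compounds were dispensed at 11 concentrations (23 nL each) onto three adrenocortical carcinoma cell lines in 1,536-well plates. Luminescence was recorded after 48 h using CellTiter-Glo, and signals were normalised per plate to vehicle and empty-well controls. Fitted concentration-response curves of inhibitory or non-responding classes only supplied the AC50 and area under the curve.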

CU-ACC2 [2] = experiment: as above
Method in brief: as §1

NCI-H295R [3] = experiment: as above
Method in brief: as §1

CU-ACC1 [4] = experiment: AC50 viability; higher = less potent
Method in brief: as §1

CU-ACC2 [5] = experiment: AC50 viability; higher = less potent
Method in brief: as §1

NCI-H295R [6] = experiment: AC50 viability; higher = less potent
Method in brief: as §1

Row | SMILES | area under concentration-response curve (CU-ACC1 [1]) | area under concentration-response curve (CU-ACC2 [2]) | area under concentration-response curve (NCI-H295R [3]) | AC50 viability (CU-ACC1 [4]) [µM] | AC50 viability (CU-ACC2 [5]) [µM] | AC50 viability (NCI-H295R [6]) [µM]
1 | C[C@H]1COCCN1c1cc(C2([S+](=O)([O-])C3CC3)CC2)nc(-c2ccc(NC(=S)NCCO)cc2)n1 | 325 | 394 | 366 | 0.295 | 0.525 | 0.661
2 | C[C@@H]1C[C@H]2[C@@H]3\C=C(C)/C4=C/C5=C(C[C@]4(C)[C@H]3[C@@H](O)C[C@]2(C)[C@@]1(O)C(=O)CO)C=N[N]5C6=CC=CC=C6 | 435 | 563 | 474 | 26.3 | 23.5 | 11.8
3 | CNC1CCC(N(Cc2cccc(-c3ccncc3)c2)C(=O)c2sc3c(F)ccc(F)c3c2Cl)CC1 (stereo unspecified) | 443 | 499 | 448 | 8.33 | 9.34 | 9.34
4 | CNCCn1c(=O)c2cc(OC)c(OC)cc2c2cnc3cc4c(cc3c21)OCO4 | 422 | 537 | 553 | 0.0959 | 0.135 | 0.152
5 | CC(C)N(CCCNC(=O)Nc1ccc(C(C)(C)C)cc1)C[C@H]1O[C@@H](n2cc(Br)c3c(N)ncnc32)[C@H](O)[C@@H]1O | 438 | 506 | 464 | 16.6 | 16.6 | 16.6
6 | O=C1NC(=O)/C(=C/c2ccc3nccc(-c4ccncc4)c3c2)S1 | 412 | 480 | 393 | 1.32 | 1.18 | 1.32
7 | CC(C)C1=N[N](C\2=C1C(=O)N\C(=N2)CC3=CC=C(OCCO)C=C3)C4=C(Cl)C=CC=C4Cl | 241 | 183 | 289 | 0.0332 | 0.0209 | 0.0833
8 | N[C@@H](Cc1ccc(N(CCCl)CCCl)cc1)C(=O)O | 267 | 303 | 385 | 10.5 | 9.34 | 9.34
9 | CCC1=C2C=C(OC(=O)N3CCC(CC3)N4CCCCC4)C=CC2=NC\5=C1CN6C(=O)\C7=C(/C=C56)[C@@](O)(CC)C(=O)OC7 | 382 | 426 | 443 | 13.2 | 2.95 | 13.2
10 | CCC(C)SSc1ncc[nH]1 (stereo unspecified) | 503 | 507 | 491 | 33.2 | 20.9 | 23.5
11 | COC1=CC2=C(C=C1CC3=C(F)C(=CC=C3)Cl)C(=O)\C(=C/N2[C@H](CO)C(C)C)C(O)=O | 405 | 528 | 509 | 16.6 | 14.8 | 20.9
12 | C[N]1C=C(C=N1)C2=CC=C3N=CC\4=C(N(C(=O)\C=C4)C5=CC6=C(CCN6C(=O)C=C)C=C5)C3=C2 | 349 | 433 | 399 | 0.407 | 0.723 | 0.723
13 | CCN1CCN(Cc2ccc(Nc3ncc(F)c(-c4cc(F)c5nc(C)n(C(C)C)c5c4)n3)nc2)CC1 | 463 | 362 | 480 | 18.6 | 8.33 | 18.6
14 | CCOC(=O)CCNc1cc(N2CCc3ccccc3CC2)nc(-c2ccccn2)n1 | 384 | 534 | 444 | 3.32 | 16.6 | 3.72
15 | Cc1ccc(NC(=O)NCc2ccc3c(c2)CN(C2CCC(=O)NC2=O)C3=O)cc1Cl (stereo unspecified) | 137 | 289 | 234 | 0.00372 | 0.0332 | 0.0166
16 | CCCCc1nc2cc(/C=C/C(=O)NO)ccc2n1CCN(CC)CC | 416 | 405 | 453 | 1.66 | 5.9 | 1.48
17 | C[C@@H](NC(=O)c1ncnc(N)c1Cl)c1ncc(C(=O)Nc2cc(C(F)(F)F)c(Cl)cn2)s1 | 295 | 316 | 318 | 18.6 | 18.6 | 18.6
18 | COc1cc(-c2nn(C3CCC(N4CCN(C(C)=O)CC4)CC3)c3ncnc(N)c23)ccc1NC(=O)c1cc2ccccc2n1C (stereo unspecified) | 418 | 512 | 460 | 8.33 | 10.5 | 9.34
19 | O=C(Nc1c[nH]nc1-c1nc2cc(CN3CCOCC3)ccc2[nH]1)NC1CC1 | 423 | 386 | 350 | 8.33 | 2.63 | 16.6
20 | O=C(CCCCCCC(=O)N/N=C/c1ccc(N(c2ccccc2)c2ccccc2)cc1)NO | 381 | 371 | 382 | 6.61 | 10.5 | 1.18
21 | CCCC1(CCC)CCC2(CCN(CCCN(CC)CC)C2)CC1 | 309 | 516 | 448 | 4.68 | 6.61 | 4.17
22 | C=CC(=O)Nc1cc(Nc2nccc(-c3cn(C)c4ccccc34)n2)c(OC)cc1N(C)CCN(C)C | 393 | 432 | 408 | 9.34 | 10.5 | 9.34
23 | CN(C)C[C@@H]1CC[N]2C=C(C3=C2C=CC=C3)C/4=C(/C(=O)NC4=O)C5=C[N](CCO1)C6=C5C=CC=C6 | 292 | 389 | 368 | 14.8 | 8.33 | 7.42
24 | Nc1ccc(/C=C/C(=O)NCc2cc3cc(-c4ccc(C(=O)N5CCC(F)(F)CC5)cc4)cc(-c4ccc(F)cc4)c3o2)cn1 | 340 | 447 | 458 | 2.09 | 2.35 | 3.32
25 | NC1(CCC1)C2=CC=C(C=C2)C3=C(C=C/4C(=N3)\C=C/N5C(=O)N\N=C45)C6=CC=CC=C6 | 442 | 523 | 404 | 9.34 | 18.6 | 16.6
26 | C[C@@H]1O[C@@H](O[C@H]2C[C@@H](O)[C@]3(CO)[C@H]4[C@H](O)C[C@]5(C)[C@H](CC[C@]5(O)[C@@H]4CC[C@]3(O)C2)C/6=C/C(=O)OC6)[C@H](O)[C@H](O)[C@H]1O | 215 | 335 | 264 | 0.0263 | 0.0468 | 0.0934
